# Tests used:
# [1] = test system: HIV-1 M184V; conditions: cited from earlier work; for Resistance conferred by M184V as compared to WT: single amino acid residue mutation M184V
# [2] = molecular target: T1, WT HIV-1 RT (Human immunodeficiency virus type 1 group M subtype B, UniProt P03366, Q857C); experiment: Pre-steady-state single-turnover kinetics of nucleotide incorporation by WT HIV-1 RT; format: biochemical; conditions: for Kd: 18/26-mer dsDNA, 37 °C, read-out: Kd (apparent equilibrium dissociation constant); for Tighter binding (Kd) compared to natural dCTP: Kd dCTP / Kd analog
# T1 construct: HIV-1 RT p66 and p51 subunits were expressed and purified as described previously; made in house
# Protocol: (§1) Previous kinetic studies[16],[18],[20],[22]–[26] have aimed at understanding the efficiency of incorporation for (−)-FTC-TP or (−)-3TC-TP, how they compete against dCTP, and the effect of resistance mutations, such as M184V. As in our previous work[20],[25],[26], single-turnover kinetic assays were performed by rapidly mixing a pre-incubating solution of 120 nM HIV-1 RT (WT or M184V) and 30 nM 5ʹ-[^32P]-labeled 18/26-mer dsDNA substrate (Methods) with varying concentrations of dCTP, or an active metabolite of NRTIs for different times, before being quenched by 0.37 M EDTA. Representative kinetic plots displaying M184V-catalyzed incorporation of (−)-FTC-TP onto 18/26-mer dsDNA substrate are shown in Fig. 2. […] We determined the pre-steady-state kinetic parameters of maximal nucleotide incorporation rate constants (kp) and apparent equilibrium dissociation constants (Kd) for dCTP, (+)-FTC-TP, (−)-FTC-TP, (+)-3TC-TP and (−)-3TC-TP with WT or M184V HIV-1 RT (Table 1). […] The resulting selectivity factors ((kp/Kd)dCTP/(kp/Kd)NRTI) were determined to be only 1.9 and 7.0-fold higher for dCTP over (−)-FTC-TP and (−)-3TC-TP, respectively.
# (§2) HIV-1 RT (120 nM) and 5ʹ-[^32P]-labeled 18/26-mer DNA (30 nM; DNA sequence shown above the 18mer primer without chemical modification) were pre-incubated at 37 °C for 5 min in reaction buffer containing 50 mM Tris-HCl (pH, 7.9), 10 mM MgCl2, 50 mM NaCl, 0.1 mM EDTA, 10% glycerol, 5 mM DTT, and 0.1 µg/mL BSA (all concentrations are final upon mixing). The reactions were initiated by rapidly mixing with varying concentrations of dCTP, FTC-TP, or 3TC-TP on a rapid chemical-quench flow apparatus (KinTek) and quenched with 0.37 M EDTA at various times. The DNA products were analyzed by sequencing gel electrophoresis (17% polyacrylamide, 8 M Urea), and quantitated using a Typhoon Trio (GE Healthcare) and ImageQuant software (Molecular Dynamics). The kinetic data were fit using non-linear regression software KaleidaGraph (Synergy) to a single-exponential equation Product=A1−exp−kobst, where A and kobs represent the reaction amplitude and observed nucleotide incorporation rate constant, respectively. Values for kobs were then plotted against the respective dNTP (or an NRTI triphosphate) concentration and each plot was fit to a hyperbolic equation kobs=kpdNTP∕Kd+dNTP, where kp is the maximal nucleotide incorporation rate constant and Kd is the apparent equilibrium dissociation constant for the binding of dNTP (or an NRTI triphosphate) to the RT and DNA complex. Each set of kinetic parameters (kp, Kd, kp/Kd) are derived from 8 individual experiments where the concentration of nucleotide is variable (i.e. 8 distinct concentrations of dCTP or NRTI). All reported error values are derived from data fitting using non-linear regression software KaleidaGraph (Synergy).
# [3] = molecular target: T2, M184V HIV-1 RT (Human immunodeficiency virus type 1 group M subtype B, UniProt P03366, M783V/Q857C); experiment: Pre-steady-state single-turnover kinetics of nucleotide incorporation by M184V HIV-1 RT; format: biochemical
# T2 construct: HIV-1 RT p66 and p51 subunits were expressed and purified as described previously; made in house
# Protocol: as §1
# (§3) Fig. 2 Determination of kinetic parameters for (−)-FTC-TP incorporation onto 18/26-mer dsDNA catalyzed by the M184V mutant of HIV-1 RT. a A pre-incubated solution of 120 nM M184V and 30 nM 5′-[^32P]-labeled 18/26-mer was mixed with increasing concentrations of (−)-FTC-TP (3.75 µM, ●; 7.5 µM, [drawing 1]; 15 µM, [drawing 2]; 30 µM, x; 60 µM, [drawing 3]; 120 µM, [drawing 4]; 240 µM, [drawing 5]; 480 µM, [drawing 6] ) for various times at 37 °C before being quenched with 0.37 M EDTA.
# as §2
# [4] = test system: M184V HIV-1 RT; experiment: as above; format: biochemical; conditions: M184V vs WT RT
# Protocol: as §1, §3, §2
# [5] = test system: M184V mutant RT; conditions: up; cited from earlier work
# [6] = test system: HIV; conditions: clinical trials, monotherapy; cited from earlier work
# [7] = test system: HIV virus; conditions: initial cell-based screening; cited from earlier work
# [8] = test system: HIV; set-up: method as in PMID 19225726; conditions: reportedly; cited from earlier work
smiles,measurement,setting,value
"Nc1ccn([C@H]2CS[C@@H](CO)O2)c(=O)n1 [3TC, 2ʹ,3ʹ-dideoxy-3ʹ-thiacytidine]",Reduction in potency by M184V in cell-based assays,[1],> 500 fold
same,Resistance conferred by M184V as compared to WT,[1],> 500 fold
Nc1ccn([C@H]2CS[C@@H](COP(=O)(O)OP(=O)(O)OP(=O)(O)O)O2)c(=O)n1 [(+)-3TC-TP],Kd,[2]; WT HIV-1 RT,0.202 ± 0.004 µM
same,Kd,[3],5.4 ± 1.2 µM
Nc1nc(=O)n([C@H]2CS[C@@H](COP(=O)(O)OP(=O)(O)OP(=O)(O)O)O2)cc1F [(+)-FTC-TP],Kd,[2]; WT HIV-1 RT,0.19 ± 0.02 µM
same,Kd,[3],1.8 ± 0.3 µM
Nc1ccn([C@@H]2CS[C@H](COP(=O)(O)OP(=O)(O)OP(=O)(O)O)O2)c(=O)n1 [(−)-3TC-TP],Kd,[2]; WT HIV-1 RT,0.25 ± 0.01 µM
same,Higher Kd value (lower binding affinity) over (−)-FTC-TP,[2]; WT RT,2.5 fold
same,Tighter binding (Kd) compared to natural dCTP,[2]; WT RT,25 fold
same,Kd,[3],53 ± 4 µM
same,Reduction of binding affinity (higher Kd) of M184V compared to WT,[4],212 fold
Nc1nc(=O)n([C@@H]2CS[C@H](COP(=O)(O)OP(=O)(O)OP(=O)(O)O)O2)cc1F [(−)-FTC-TP],Binding affinity increase (tighter binding) over (−)-3TC-TP,[2]; WT HIV-1 RT,2.5 fold
same,Higher incorporation efficiency (kp/Kd) than (−)-3TC-TP,[2]; WT HIV-1 RT,3.7 fold
same,Kd,[2]; WT HIV-1 RT,0.1 ± 0.01 µM
same,Tighter binding (Kd) compared to natural dCTP,[2]; WT RT,63 fold
same,Kd,[3],28 ± 2 µM
same,Reduction of binding affinity (higher Kd) of M184V compared to WT,[4],280 fold
"Nc1nc(=O)n([C@H]2CS[C@@H](CO)O2)cc1F [FTC, 2ʹ,3ʹ-dideoxy-5-fluoro-3ʹ-thiacytidine]",Reduction in potency by M184V in cell-based assays,[1],> 500 fold
same,Resistance conferred by M184V as compared to WT,[1],> 500 fold
same,Reduction in potency by M184V in enzyme-based assays,[5],> 300 fold
same,Reduction in viral HIV RNA,[6],1.7 log
same,Cytotoxicity versus corresponding (+)-stereoisomer,[7],less cytotoxic
same,Potency against the HIV virus versus corresponding (+)-stereoisomer,[7],more potent
Cc1cn([C@@H]2C[C@@H](O)[C@H](CO)O2)c(=O)[nH]c1=O [Telbivudine],Inhibition of HIV,[8],does not inhibit HIV
"Nc1ccn([C@H]2C[C@H](O)[C@@H](COP(=O)(O)OP(=O)(O)OP(=O)(O)O)O2)c(=O)n1 [dCTP, deoxycytidine triphosphate]",Kd,[2]; WT HIV-1 RT,6.3 ± 0.2 µM
same,Kd,[3],8.9 ± 1 µM

# Source: article PMC6910994, “Elucidating molecular interactions of L-nucleotides with HIV-1 reverse transcriptase and mechanism of M184V-caused drug resistance” (Communications Biology, 2019)
